Test results published in the Kinase Knowledgebase extract (Sharma et al. 2016).

Tests used:
MAPK14 (human) [1] = molecular target: MAPK14 (human) (UniProt Q16539); assay: Assessment of MAPK14 Kinase Activity
MAPK14 (human) [2] = molecular target: MAPK14 (human) (UniProt Q16539); assay: Inhibition of MAPK14 Kinase Activity

Sequence of MAPK14 (human) (Q16539 whole entry, looked up): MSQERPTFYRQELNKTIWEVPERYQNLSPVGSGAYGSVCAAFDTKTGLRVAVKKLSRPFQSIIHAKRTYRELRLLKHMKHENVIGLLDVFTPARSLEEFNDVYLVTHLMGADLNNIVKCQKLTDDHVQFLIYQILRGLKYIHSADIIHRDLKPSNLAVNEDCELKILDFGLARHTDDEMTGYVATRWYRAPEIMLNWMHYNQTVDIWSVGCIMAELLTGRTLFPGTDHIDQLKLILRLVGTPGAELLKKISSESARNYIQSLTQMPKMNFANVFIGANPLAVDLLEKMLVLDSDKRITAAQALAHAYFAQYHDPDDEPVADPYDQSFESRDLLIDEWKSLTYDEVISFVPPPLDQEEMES

| SMILES | IC50 (MAPK14 (human) [1]) [µM] | IC50 (MAPK14 (human) [2]) [µM] |
| --- | --- | --- |
| CCCNC(=O)c1ccc(-c2cc(C(=O)NC3CC3)cc(F)c2C)[n+]([O-])c1 | < 10 | < 10 |
| COC[C@H](C)NC(=O)c1ccc(-c2cc(C(=O)NC3CC3)cc(F)c2C)[n+]([O-])c1 | < 10 | < 10 |
| CCC1CCCN(C(=O)c2ccc(-c3cc(C(=O)NC4CC4)cc(F)c3C)[n+]([O-])c2)C1 (centres undefined) | < 10 | < 10 |
| CCC(CC)NC(=O)c1ccc(-c2cc(C(=O)NC3CC3)cc(F)c2C)[n+]([O-])c1 | < 10 | < 10 |
| Cc1c(F)cc(C(=O)NC2CC2)cc1-c1ccc(C(=O)NCC(C)(C)C)c[n+]1[O-] | < 10 | < 10 |
| Cc1c(F)cc(C(=O)NC2CC2)cc1-c1ccc(C(=O)NCc2ccc(C(F)(F)F)cc2C(F)(F)F)c[n+]1[O-] | < 10 | < 10 |
| Cc1c(F)cc(C(=O)NC2CC2)cc1-c1ccc(C(=O)N[C@H](C)C(C)C)c[n+]1[O-] | < 10 | < 10 |
| Cc1ccc(C)c(CNC(=O)c2ccc(-c3cc(C(=O)NC4CC4)cc(F)c3C)[n+]([O-])c2)c1 | < 10 | < 10 |
| Cc1c(F)cc(C(=O)NC2CC2)cc1-c1ccc(C(=O)NC(C)c2ccc(Cl)cc2)c[n+]1[O-] (centres undefined) | < 10 | < 10 |
| CCC(C)(C)NC(=O)c1ccc(-c2cc(C(=O)NC3CC3)cc(F)c2C)[n+]([O-])c1 | < 10 | < 10 |
| CCc1ccccc1CNC(=O)c1ccc(-c2cc(C(=O)NC3CC3)cc(F)c2C)[n+]([O-])c1 | < 10 | < 10 |
| Cc1ccc(CNC(=O)c2ccc(-c3cc(C(=O)NC4CC4)cc(F)c3C)[n+]([O-])c2)cc1C | < 10 | < 10 |
